In ChEMBL document CHEMBL1681699 (Bioorg Med Chem, 2011):

Columns and labels:
Plasma [1] = test: Metabolic stability in Sprague-Dawley rat plasma assessed as 4-(1-Methyl-4-pyridin-4-yl-1H-pyrazol-3-yl)-phenol remaining retention time administered intravenously measured after 60 mins postinjection; assay type: ADME, organism-based; settings: in vivo, iv
Brain [2] = test: Biodistribution in Sprague-Dawley rat brain at 3.7 x 10^3 to 5.55 x 10^3 GBq, iv after 5 mins; assay type: ADME, organism-based; settings: in vivo
[3] = Biodistribution in Sprague-Dawley rat hippocampus at 3.7 x 10^3 to 5.55 x 10^3 GBq, iv after 60 mins; assay type: ADME, organism-based; settings: in vivo, 1 h
[4] = Metabolic stability in Sprague-Dawley rat plasma assessed as radioactive compound remaining after 20 mins; assay type: ADME, cell-free; settings: read-out: Stability
Brain [5] = test: Metabolic stability in Sprague-Dawley rat brain assessed as 4-(1-Methyl-4-pyridin-4-yl-1H-pyrazol-3-yl)-phenol remaining after 20 mins; assay type: ADME, tissue-based
Brain [6] = test: Biodistribution in Sprague-Dawley rat brain at 3.7 x 10^3 to 5.55 x 10'3 GBq, iv after 30 mins; assay type: ADME, organism-based; settings: in vivo, 0.5 h
[7] = Metabolic stability in Sprague-Dawley rat brain assessed as radioactive compound remaining after 60 mins; assay type: ADME, tissue-based; settings: read-out: Stability
[8] = Metabolic stability in Sprague-Dawley rat plasma assessed as radioactive compound remaining after 2 mins; assay type: ADME, cell-free; settings: read-out: Stability
Plasma [9] = test: Metabolic stability in Sprague-Dawley rat plasma assessed as compound remaining retention time administered intravenously measured after 60 mins postinjection; assay type: ADME, organism-based; settings: in vivo, iv, 1 h
[10] = Biodistribution in Sprague-Dawley rat hippocampus at 3.7 x 10^3 to 5.55 x 10'3 GBq, iv after 30 mins; assay type: ADME, organism-based; settings: in vivo, 0.5 h
Muscle tissue [11] = test: Biodistribution in Sprague-Dawley rat muscle at 3.7 x 10^3 to 5.55 x 10^3 GBq, iv after 60 mins; assay type: ADME, organism-based; settings: in vivo, 1 h
Kidney [12] = test: Biodistribution in Sprague-Dawley rat kidney at 3.7 x 10^3 to 5.55 x 10'3 GBq, iv after 30 mins; assay type: ADME, organism-based; settings: in vivo, 0.5 h
[13] = Metabolic stability in Sprague-Dawley rat brain assessed as radioactive compound remaining after 20 mins; assay type: ADME, tissue-based; settings: read-out: Stability
Liver [14] = test: Biodistribution in Sprague-Dawley rat liver at 3.7 x 10^3 to 5.55 x 10^3 GBq, iv after 5 mins; assay type: ADME, organism-based; settings: in vivo
Brain [15] = test: Biodistribution in Sprague-Dawley rat brain at 3.7 x 10^3 to 5.55 x 10^3 GBq, iv after 60 mins; assay type: ADME, organism-based; settings: in vivo, 1 h
Testes [16] = test: Biodistribution in Sprague-Dawley rat testes at 3.7 x 10^3 to 5.55 x 10'3 GBq, iv after 30 mins; assay type: ADME, organism-based, Testis; settings: in vivo, 0.5 h
Muscle tissue [17] = test: Biodistribution in Sprague-Dawley rat muscle at 3.7 x 10^3 to 5.55 x 10^3 GBq, iv after 5 mins; assay type: ADME, organism-based; settings: in vivo
Blood [18] = test: Biodistribution in Sprague-Dawley rat blood at 3.7 x 10^3 to 5.55 x 10'3 GBq, iv after 30 mins; assay type: ADME, organism-based; settings: in vivo, 0.5 h
Muscle tissue [19] = test: Biodistribution in Sprague-Dawley rat muscle at 3.7 x 10^3 to 5.55 x 10'3 GBq, iv after 30 mins; assay type: ADME, organism-based; settings: in vivo, 0.5 h
Liver [20] = test: Biodistribution in Sprague-Dawley rat liver at 3.7 x 10^3 to 5.55 x 10'3 GBq, iv after 30 mins; assay type: ADME, organism-based; settings: in vivo, 0.5 h
Kidney [21] = test: Biodistribution in Sprague-Dawley rat kidney at 3.7 x 10^3 to 5.55 x 10^3 GBq, iv after 60 mins; assay type: ADME, organism-based; settings: in vivo, 1 h
Testes [22] = test: Biodistribution in Sprague-Dawley rat testes at 3.7 x 10^3 to 5.55 x 10^3 GBq, iv after 5 mins; assay type: ADME, organism-based, Testis; settings: in vivo
Heart [23] = test: Biodistribution in Sprague-Dawley rat heart at 3.7 x 10^3 to 5.55 x 10^3 GBq, iv after 60 mins; assay type: ADME, organism-based; settings: in vivo, 1 h
[24] = Metabolic stability in Sprague-Dawley rat plasma assessed as radioactive compound remaining after 60 mins; assay type: ADME, cell-free; settings: read-out: Stability
Brain [25] = test: Metabolic stability in Sprague-Dawley rat brain assessed as 4-(1-Methyl-4-pyridin-4-yl-1H-pyrazol-3-yl)-phenol remaining after 40 mins; assay type: ADME, tissue-based
Striatum [26] = test: Biodistribution in Sprague-Dawley rat striatum at 3.7 x 10^3 to 5.55 x 10^3 GBq, iv after 60 mins; assay type: ADME, organism-based; settings: in vivo, 1 h
Striatum [27] = test: Biodistribution in Sprague-Dawley rat striatum at 3.7 x 10^3 to 5.55 x 10^3 GBq, iv after 5 mins; assay type: ADME, organism-based; settings: in vivo
[28] = Biodistribution in Sprague-Dawley rat hippocampus at 3.7 x 10^3 to 5.55 x 10^3 GBq, iv after 5 mins; assay type: ADME, organism-based; settings: in vivo
Cortex [29] = test: Biodistribution in Sprague-Dawley rat cortex at 3.7 x 10^3 to 5.55 x 10^3 GBq, iv after 5 mins; assay type: ADME, organism-based; settings: in vivo
Blood [30] = test: Biodistribution in Sprague-Dawley rat blood at 3.7 x 10^3 to 5.55 x 10^3 GBq, iv after 60 mins; assay type: ADME, organism-based; settings: in vivo, 1 h
[31] = Metabolic stability in Sprague-Dawley rat brain assessed as radioactive compound remaining after 2 mins; assay type: ADME, tissue-based; settings: read-out: Stability
[32] = Metabolic stability in Sprague-Dawley rat plasma assessed as radioactive compound remaining after 40 mins; assay type: ADME, cell-free; settings: read-out: Stability
Plasma [33] = test: Metabolic stability in Sprague-Dawley rat plasma assessed as 4-(1-Methyl-4-pyridin-4-yl-1H-pyrazol-3-yl)-phenol remaining after 40 mins; assay type: ADME, cell-free
Brain [34] = test: Metabolic stability in Sprague-Dawley rat brain assessed as 4-(1-Methyl-4-pyridin-4-yl-1H-pyrazol-3-yl)-phenol remaining retention time administered intravenously measured after 60 mins postinjection; assay type: ADME, organism-based; settings: in vivo, iv
Lung [35] = test: Biodistribution in Sprague-Dawley rat lung at 3.7 x 10^3 to 5.55 x 10^3 GBq, iv after 60 mins; assay type: ADME, organism-based; settings: in vivo, 1 h
Cerebellum [36] = test: Biodistribution in Sprague-Dawley rat cerebellum at 3.7 x 10'3 to 5.55 x 10^3 GBq, iv after 60 mins; assay type: ADME, organism-based; settings: in vivo, 1 h
Cerebellum [37] = test: Biodistribution in Sprague-Dawley rat cerebellum at 3.7 x 10'3 to 5.55 x 10^3 GBq, iv after 5 mins; assay type: ADME, organism-based; settings: in vivo
Striatum [38] = test: Biodistribution in Sprague-Dawley rat striatum at 3.7 x 10^3 to 5.55 x 10'3 GBq, iv after 30 mins; assay type: ADME, organism-based; settings: in vivo, 0.5 h
Lung [39] = test: Biodistribution in Sprague-Dawley rat lung at 3.7 x 10^3 to 5.55 x 10'3 GBq, iv after 30 mins; assay type: ADME, organism-based; settings: in vivo, 0.5 h
Brain [40] = test: Metabolic stability in Sprague-Dawley rat brain assessed as 4-(1-Methyl-4-pyridin-4-yl-1H-pyrazol-3-yl)-phenol remaining after 2 mins; assay type: ADME, tissue-based
[41] = Biodistribution in Sprague-Dawley rat fat at 3.7 x 10^3 to 5.55 x 10'3 GBq, iv after 30 mins; assay type: ADME, organism-based, Adipose tissue; settings: in vivo, 0.5 h
Liver [42] = test: Biodistribution in Sprague-Dawley rat liver at 3.7 x 10^3 to 5.55 x 10^3 GBq, iv after 60 mins; assay type: ADME, organism-based; settings: in vivo, 1 h
Plasma [43] = test: Metabolic stability in Sprague-Dawley rat plasma assessed as 4-(1-Methyl-4-pyridin-4-yl-1H-pyrazol-3-yl)-phenol remaining after 2 mins; assay type: ADME, cell-free
Brain [44] = test: Metabolic stability in Sprague-Dawley rat brain assessed as compound remaining retention time administered intravenously measured after 60 mins postinjection; assay type: ADME, organism-based; settings: in vivo, iv, 1 h
[45] = Biodistribution in Sprague-Dawley rat fat at 3.7 x 10^3 to 5.55 x 10^3 GBq, iv after 5 mins; assay type: ADME, organism-based, Adipose tissue; settings: in vivo
Brain [46] = test: Metabolic stability in Sprague-Dawley rat brain assessed as 4-(1-Methyl-4-pyridin-4-yl-1H-pyrazol-3-yl)-phenol remaining after 60 mins; assay type: ADME, tissue-based
Cerebellum [47] = test: Biodistribution in Sprague-Dawley rat cerebellum at 3.7 x 10'3 to 5.55 x 10'3 GBq, iv after 30 mins; assay type: ADME, organism-based; settings: in vivo, 0.5 h
Kidney [48] = test: Biodistribution in Sprague-Dawley rat kidney at 3.7 x 10^3 to 5.55 x 10^3 GBq, iv after 5 mins; assay type: ADME, organism-based; settings: in vivo
Heart [49] = test: Biodistribution in Sprague-Dawley rat heart at 3.7 x 10^3 to 5.55 x 10'3 GBq, iv after 30 mins; assay type: ADME, organism-based; settings: in vivo, 0.5 h
Cortex [50] = test: Biodistribution in Sprague-Dawley rat cortex at 3.7 x 10^3 to 5.55 x 10'3 GBq, iv after 30 mins; assay type: ADME, organism-based; settings: in vivo, 0.5 h
Heart [51] = test: Biodistribution in Sprague-Dawley rat heart at 3.7 x 10^3 to 5.55 x 10^3 GBq, iv after 5 mins; assay type: ADME, organism-based; settings: in vivo
Testes [52] = test: Biodistribution in Sprague-Dawley rat testes at 3.7 x 10^3 to 5.55 x 10^3 GBq, iv after 60 mins; assay type: ADME, organism-based, Testis; settings: in vivo, 1 h
Blood [53] = test: Biodistribution in Sprague-Dawley rat blood at 3.7 x 10^3 to 5.55 x 10^3 GBq, iv after 5 mins; assay type: ADME, organism-based; settings: in vivo
Lung [54] = test: Biodistribution in Sprague-Dawley rat lung at 3.7 x 10^3 to 5.55 x 10^3 GBq, iv after 5 mins; assay type: ADME, organism-based; settings: in vivo
[55] = Metabolic stability in Sprague-Dawley rat brain assessed as radioactive compound remaining after 40 mins; assay type: ADME, tissue-based; settings: read-out: Stability
[56] = Biodistribution in Sprague-Dawley rat fat at 3.7 x 10^3 to 5.55 x 10^3 GBq, iv after 60 mins; assay type: ADME, organism-based, Adipose tissue; settings: in vivo, 1 h
Plasma [57] = test: Metabolic stability in Sprague-Dawley rat plasma assessed as 4-(1-Methyl-4-pyridin-4-yl-1H-pyrazol-3-yl)-phenol remaining after 20 mins; assay type: ADME, cell-free
Cortex [58] = test: Biodistribution in Sprague-Dawley rat cortex at 3.7 x 10^3 to 5.55 x 10^3 GBq, iv after 60 mins; assay type: ADME, organism-based; settings: in vivo, 1 h
Plasma [59] = test: Metabolic stability in Sprague-Dawley rat plasma assessed as 4-(1-Methyl-4-pyridin-4-yl-1H-pyrazol-3-yl)-phenol remaining after 60 mins; assay type: ADME, cell-free

## [11CH3]n1cc(-c2ccncc2)c(-c2ccc(OCc3ccc4ccccc4n3)cc2)n1
Plasma [1]
  Time: 3 min
Brain [2]
  Drug uptake: 0.162 % ID/g
[3]
  Drug uptake: 0.051 % ID/g
[4]
  remaining at 20 min: 74.2%
Brain [5]
  Activity: 3.45%
Brain [6]
  Drug uptake: 0.066 % ID/g
[7]
  remaining at 1 h: 78.6%
[8]
  remaining at 2 min: 98.3%
Plasma [9]
  Time: 3 min
[10]
  Drug uptake: 0.05 % ID/g
Muscle tissue [11]
  Drug uptake: 0.039 % ID/g
Kidney [12]
  Drug uptake: 0.366 % ID/g
[13]
  remaining at 20 min: 94.8%
Liver [14]
  Drug uptake: 2.766 % ID/g
Brain [15]
  Drug uptake: 0.056 % ID/g
Testes [16]
  Drug uptake: 0.098 % ID/g
Muscle tissue [17]
  Drug uptake: 0.093 % ID/g
Blood [18]
  Drug uptake: 0.065 % ID/g
Muscle tissue [19]
  Drug uptake: 0.059 % ID/g
Liver [20]
  Drug uptake: 3.395 % ID/g
Kidney [21]
  Drug uptake: 0.314 % ID/g
Testes [22]
  Drug uptake: 0.16 % ID/g
Heart [23]
  Drug uptake: 0.068 % ID/g
[24]
  remaining at 1 h: 49.3%
Brain [25]
  Activity: 11.47%
Striatum [26]
  Drug uptake: 0.164 % ID/g
Striatum [27]
  Drug uptake: 0.3 % ID/g
[28]
  Drug uptake: 0.169 % ID/g
Cortex [29]
  Drug uptake: 0.133 % ID/g
Blood [30]
  Drug uptake: 0.047 % ID/g
[31]
  remaining at 2 min: 98.7%
[32]
  remaining at 40 min: 52.6%
Plasma [33]
  Activity: 35.19%
Brain [34]
  Time: 10.5 min
Lung [35]
  Drug uptake: 0.09 % ID/g
Cerebellum [36]
  Drug uptake: 0.035 % ID/g
Cerebellum [37]
  Drug uptake: 0.133 % ID/g
Striatum [38]
  Drug uptake: 0.236 % ID/g
Lung [39]
  Drug uptake: 0.155 % ID/g
Brain [40]
  Activity: 1.03%
[41]
  Drug uptake: 0.075 % ID/g
Liver [42]
  Drug uptake: 3.364 % ID/g
Plasma [43]
  Activity: 1.23%
Brain [44]
  Time: 10.5 min
[45]
  Drug uptake: 0.124 % ID/g
Brain [46]
  Activity: 15.87%
Cerebellum [47]
  Drug uptake: 0.036 % ID/g
Kidney [48]
  Drug uptake: 1.229 % ID/g
Heart [49]
  Drug uptake: 0.102 % ID/g
Cortex [50]
  Drug uptake: 0.044 % ID/g
Heart [51]
  Drug uptake: 0.264 % ID/g
Testes [52]
  Drug uptake: 0.068 % ID/g
Blood [53]
  Drug uptake: 0.123 % ID/g
Lung [54]
  Drug uptake: 0.317 % ID/g
[55]
  remaining at 40 min: 84.7%
[56]
  Drug uptake: 0.1 % ID/g
Plasma [57]
  Activity: 19.13%
Cortex [58]
  Drug uptake: 0.044 % ID/g
Plasma [59]
  Activity: 40.72%
